Patent publication US5525731A, “Camptothecin analogues and methods of preparation thereof” (priority 1994, dated 1996)
Where two headings read alike, the source gives them in different places.

Assays:
[1] = system: topoisomerase-I; experiment: Inhibition of topoisomerase-I activity (in words); type: biochemical
[2] = Reactivity with thiophenol in dichloromethane
Excerpt: (For a related example of thiophenol addition to α-methylene-γ-lactones, see: Marshall, J. A., et al., J. Org. Chem., 47, 699 (1982).) NMR analysis of the crude reaction mixture indicated formation of the expected adducts 58 and 59.

[3] = system: 844K cells; experiment: Cytotoxicity, XTT assay, 844K cells (so in the source); type: cell-based; conditions: Table II, read-out: Inhibitory Concentrations IC50
Procedure: (§1) The synthesized compounds were evaluated for their cytotoxic effects on HL-60 (human promyelocytic leukemia) and 833K cells. The assay was conducted in 96-well microplates. The compounds were serially diluted in 4 to 6 steps with dimethylsulfoxide and added to cell incubation medium (RPMI 1640 containing 10% fetal. […]) at the final concentration of 1.0% dimethylsulfoxide in the medium. The cytotoxicity of the compounds were determined by the XTT-microculture tetrazolium assay: 2',3'-bis(2-methoxy-4-nitro-5-sulfophenyl)-3-[(phenylamino)carbonyl]-2H-tetrazolium hydroxide (XTT) was prepared at 1 mg/mL in prewarmed (37° C.) medium without serum. Phenazine methosulfate (PMS) and fresh XTT were mixed together to obtain 0.075 mM PMS-XTT solution (25 mL of the stock with 5 mg PMS added per 5 mL of 1 mg/mL XTT). Fifty microliters of this mixture were added to each well of the cell culture after 72 hours exposure to the testing compound. After incubation at 37° C. for 6 hours, the absorbance was determined at 450 nm and 630 nm with a microplate reader (EL 340, Bio-Tek Instruments, Inc., Winooski, Vt.). THe median-effect inhibitory concentration (IC50) was determined from a medium-effect plot using computer software for the purpose.

[4] = system: HL-60 cells (human promyelocytic leukemia); experiment: Cytotoxicity, XTT assay, HL-60 cell growth, 72 hr exposure; type: cell-based
Procedure: as §1
(§2) The results of the assay of cytotoxicity towards HL-60 and 833K cells of several analogues of camptothecin prepared in accord with the invention are illustrated in the accompanying Tables I and II, along with comparison data for native camptothecin. The data shown indicate that the camptothecin analogues prepared by the new methods provided by the invention have significant cytotoxic activity against cancer cells. […]

[5] = system: 833K cells; experiment: Cytotoxicity, XTT assay, 833K cell growth, 72 hr exposure; type: cell-based; conditions: for IC50: read-out: Inhibitory Concentrations IC50; for IC70: read-out: Inhibitory Concentrations IC70; for IC95: read-out: Inhibitory Concentrations IC95
Procedure: as §1, §2

[6] = Homo sapiens, HL-60, 72 h, Table I, HL-60 (head HL-6), 72 hr, XTT, read-out: Inhibitory Concentrations IC50
[7] = Homo sapiens, HL-60, 72 h, Table I, HL-60 (head HL-6), 72 hr, XTT, read-out: Inhibitory Concentrations IC70
[8] = Homo sapiens, HL-60, 72 h, Table I, HL-60 (head HL-6), 72 hr, XTT, read-out: Inhibitory Concentrations IC95
[9] = Homo sapiens, HL-60, 72 h, Table II, HL-60, 72 hr, XTT, read-out: Inhibitory Concentrations IC50
[10] = Homo sapiens, HL-60, 72 h, Table II, HL-60, 72 hr, XTT, read-out: Inhibitory Concentrations IC70
[11] = Homo sapiens, HL-60, 72 h, Table II, HL-60, 72 hr, XTT, read-out: Inhibitory Concentrations IC95
[12] = Homo sapiens, 72 h, Table I, 72 hr, XTT
[13] = Homo sapiens, Table I, 72 hr, XTT
[14] = Table I, HL-60 (head HL-6), 72 hr, XTT
[15] = Table I, HL-60 (head HL-6), 72 hr, XTT, read-out: Inhibitory Concentrations IC50
[16] = Table II, HL-60, 72 hr, XTT, read-out: Inhibitory Concentrations IC50
[17] = Table II, HL-60, 72 hr, XTT, read-out: Inhibitory Concentrations IC70
[18] = Table II, HL-60, 72 hr, XTT, read-out: Inhibitory Concentrations IC95
[19] = Homo sapiens, HL-60, 72 h, read-out: Inhibitory Concentrations IC50, Table I, HL-60 (head HL-6), 72 hr, XTT
[20] = Homo sapiens, HL-60, 72 h, read-out: Inhibitory Concentrations IC50, Table II, HL-60, 72 hr, XTT
[21] = Homo sapiens, HL-60, 72 h, read-out: Inhibitory Concentrations IC70, Table I, HL-60 (head HL-6), 72 hr, XTT
[22] = Homo sapiens, HL-60, 72 h, read-out: Inhibitory Concentrations IC70, Table II, HL-60, 72 hr, XTT
[23] = Homo sapiens, HL-60, 72 h, read-out: Inhibitory Concentrations IC95, Table I, HL-60 (head HL-6), 72 hr, XTT
[24] = Homo sapiens, HL-60, 72 h, read-out: Inhibitory Concentrations IC95, Table II, HL-60, 72 hr, XTT

SMILES: C=C1C(=O)OCc2c1cc1n(c2=O)Cc2cc3ccccc3nc2-1 [Compound 32, 18-nor-anhydrocamptothecin]
- inhibition of topoisomerase-I activity [1]: potent camptothecin-like inhibition of topoisomerase-I activity
- reaction with thiophenol [2]: consumption of starting material

SMILES: CC[C@@]1(O)C(=O)OCc2c1cc1n(c2=O)Cc2cc3c(CN(C)C)c(O)ccc3nc2-1 [Topotecan]
- IC50 [3]: 46 nM

SMILES: CCC1C(=O)OCc2c1cc1n(c2=O)Cc2cc3ccccc3nc2-1 (stereo not drawn) [WS-2, 20-Deoxycamptothecin]
- IC50 [4, 6]: 39 nM
- IC70 [4, 7]: 52 nM
- IC95 [4, 8]: 109 nM
- IC50 [4, 9]: 39 nM
- IC70 [4, 10]: 52 nM
- IC95 [4, 11]: 109 nM
- IC50 [5, 12]: 310 nM
- IC70 [5, 13]: 143 nM
- IC95 [5, 13]: 3170 nM

SMILES: CCC1C(=O)OCc2c1c(C(=O)OC)c1n(c2=O)Cc2cc3ccccc3nc2-1 (stereo not drawn) [WS-3, 14-Carbomethoxy-20-deoxycamptothecin]
- Inhibitory Concentrations IC70 [4, 14]: 0.318
- Inhibitory Concentrations IC95 [4, 14]: 1.082
- IC50 [4, 15]: 914 nM
- IC50 [4, 16]: 194 nM
- IC70 [4, 17]: 318 nM
- IC95 [4, 18]: 1082 nM
- IC50 ([5]; Table I, 72 hr, XTT): > 50000 nM

SMILES: CCC1C(=O)OCc2c1c(C(=O)OC)c1n(c2=O)Cc2cc3ccccc3nc2-1 (stereo not drawn) [WS-4, 14-Carbomethoxy-20-deoxycamptothecin]
- Inhibitory Concentrations IC70 [4, 14]: 12.0
- Inhibitory Concentrations IC95 [4, 14]: 618.7
- IC50 [4, 15]: 2440 nM
- IC50 [4, 16]: 2440 nM
- IC70 [4, 17]: 12000 nM
- IC95 [4, 18]: 618700 nM
- IC70 [5, 13]: 5800 nM
- IC95 [5, 13]: 59800 nM
- IC50 ([5]; Table I, 72 hr, XTT): 2260 nM

SMILES: CCC1(O)C(=O)OCc2c1c(C(=O)OC)c1n(c2=O)Cc2cc3ccccc3nc2-1 (stereo not drawn) [WS-5, 14-Carbomethoxy-Camptothecin]
- IC50 [4, 19]: > 5000 nM
- IC50 [4, 20]: > 5000 nM
- IC50 ([5]; Homo sapiens, 72 h): 63500 nM
- IC70 ([5]; Homo sapiens, 72 h): 83700 nM
- IC95 ([5]; Homo sapiens, 72 h): 898000 ± 750000 nM

SMILES: CCC1(O)C(=O)OC(C)c2c1cc1n(c2=O)Cc2cc3ccccc3nc2-1 (stereo not drawn) [WS-6, 17-Methylcamptothecin]
- IC50 [4, 19]: 266 nM
- IC50 [4, 20]: 266 nM
- IC70 [4, 21]: 432 nM
- IC70 [4, 22]: 432 nM
- IC95 [4, 23]: 1430 nM
- IC95 [4, 24]: 1430 nM
- IC50 ([5]; Homo sapiens, 72 h): 3710 nM
- IC70 ([5]; Homo sapiens, 72 h): 7340 nM
- IC95 ([5]; Homo sapiens, 72 h): 40100 nM

SMILES: CC1(O)C(=O)OCc2c1cc1n(c2=O)Cc2cc3ccccc3nc2-1 (stereo not drawn) [WS-7, 20-Methylcamptothecin]
- IC50 [4, 19]: 62 nM
- IC50 [4, 20]: 62 nM
- IC70 [4, 21]: 90 nM
- IC70 [4, 22]: 90 nM
- IC95 [4, 23]: 229 nM
- IC95 [4, 24]: 229 nM
- IC50 ([5]; Homo sapiens, 72 h): 82 nM
- IC70 ([5]; Homo sapiens, 72 h): 290 nM
- IC95 ([5]; Homo sapiens, 72 h): 7160 nM

SMILES: CC=C1C(=O)OCc2c1cc1n(c2=O)Cc2cc3ccccc3nc2-1 [WS-8, 20-dehydrated-CPT]
- IC50 [4, 6]: 3440 nM
- IC70 [4, 7]: 5470 nM
- IC95 [4, 8]: 17100 nM
- IC50 [4, 9]: 3440 nM
- IC70 [4, 10]: 5470 nM
- IC95 [4, 11]: 17100 nM
- IC50 [5, 12]: 1700 nM
- IC70 [5, 13]: 4750 nM
- IC95 [5, 13]: 50400 ± 13800 nM
